We go through 16 compounds from ChEMBL document CHEMBL3872247, “Discovery of dual positive allosteric modulators (PAMs) of the metabotropic glutamate 2 receptor and CysLT1 antagonists for treating migraine headache” (Bioorg Med Chem Lett, 2017).

By EC50 is commonly meant the midpoint of the concentration-response curve. For orientation: Emax means the greatest response seen or fitted, relative to the assay's reference. Broadly, the IC50 is the point on the concentration scale where inhibition reaches its midpoint. A word on the Cmax: it is the peak of the concentration-time curve. Usually Tmax stands for the time from dosing to the highest level. By bioavailability is commonly meant dose-corrected exposure relative to a reference, in per cent. Low readings indicate poor availability, high ones good availability.

The target in data set [1] is T1, Metabotropic glutamate receptor 2 (Homo sapiens, UniProt Q14416). The experiment in a line: Positive allosteric modulation of recombinant human mGlu2 receptor expressed in hamster AV12 cells expressing EAAT1 assessed as potentiation of glutamate-induced intracellular calcium level measured after 24 to 48 hrs by FLIPR assay. In kind it is functional, cell-based. In general terms: Calcium flux is commonly read through the fluorescence of an indicator in the cells.
Target sequence in this assay (Q14416 whole entry): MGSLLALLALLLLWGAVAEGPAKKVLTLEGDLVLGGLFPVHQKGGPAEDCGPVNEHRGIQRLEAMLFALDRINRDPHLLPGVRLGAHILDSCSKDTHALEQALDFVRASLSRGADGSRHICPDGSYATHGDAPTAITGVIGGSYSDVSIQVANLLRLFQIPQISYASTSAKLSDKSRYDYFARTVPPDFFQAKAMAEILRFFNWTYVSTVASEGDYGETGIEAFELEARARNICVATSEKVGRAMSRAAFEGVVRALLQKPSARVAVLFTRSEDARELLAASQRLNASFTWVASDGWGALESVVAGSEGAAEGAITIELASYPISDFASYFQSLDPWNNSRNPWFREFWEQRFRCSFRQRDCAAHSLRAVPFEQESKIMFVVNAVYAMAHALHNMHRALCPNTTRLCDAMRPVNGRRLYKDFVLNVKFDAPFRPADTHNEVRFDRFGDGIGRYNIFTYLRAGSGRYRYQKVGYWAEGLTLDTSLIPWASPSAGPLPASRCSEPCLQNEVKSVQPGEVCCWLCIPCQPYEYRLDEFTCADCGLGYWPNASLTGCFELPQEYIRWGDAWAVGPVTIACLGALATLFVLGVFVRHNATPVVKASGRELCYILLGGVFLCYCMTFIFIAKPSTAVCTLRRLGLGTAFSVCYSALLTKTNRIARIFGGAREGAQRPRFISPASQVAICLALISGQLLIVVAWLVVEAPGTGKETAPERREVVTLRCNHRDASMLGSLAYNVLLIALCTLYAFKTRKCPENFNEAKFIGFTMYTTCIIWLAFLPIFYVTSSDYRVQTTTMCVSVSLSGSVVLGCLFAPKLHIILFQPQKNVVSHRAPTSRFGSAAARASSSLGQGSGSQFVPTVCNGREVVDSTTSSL

The target of data set [2] is T1, Metabotropic glutamate receptor 2. Put plainly: Positive allosteric modulation of recombinant human mGlu2 receptor expressed in hamster AV12 cells expressing EAAT1 assessed as potentiation of glutamate-induced intracellular calcium level measured after 24 to 48 hrs by FLIPR assay relative to glutamate. In kind it is functional, cell-based.
Target sequence in this assay (Q14416 19-872 limits assumed): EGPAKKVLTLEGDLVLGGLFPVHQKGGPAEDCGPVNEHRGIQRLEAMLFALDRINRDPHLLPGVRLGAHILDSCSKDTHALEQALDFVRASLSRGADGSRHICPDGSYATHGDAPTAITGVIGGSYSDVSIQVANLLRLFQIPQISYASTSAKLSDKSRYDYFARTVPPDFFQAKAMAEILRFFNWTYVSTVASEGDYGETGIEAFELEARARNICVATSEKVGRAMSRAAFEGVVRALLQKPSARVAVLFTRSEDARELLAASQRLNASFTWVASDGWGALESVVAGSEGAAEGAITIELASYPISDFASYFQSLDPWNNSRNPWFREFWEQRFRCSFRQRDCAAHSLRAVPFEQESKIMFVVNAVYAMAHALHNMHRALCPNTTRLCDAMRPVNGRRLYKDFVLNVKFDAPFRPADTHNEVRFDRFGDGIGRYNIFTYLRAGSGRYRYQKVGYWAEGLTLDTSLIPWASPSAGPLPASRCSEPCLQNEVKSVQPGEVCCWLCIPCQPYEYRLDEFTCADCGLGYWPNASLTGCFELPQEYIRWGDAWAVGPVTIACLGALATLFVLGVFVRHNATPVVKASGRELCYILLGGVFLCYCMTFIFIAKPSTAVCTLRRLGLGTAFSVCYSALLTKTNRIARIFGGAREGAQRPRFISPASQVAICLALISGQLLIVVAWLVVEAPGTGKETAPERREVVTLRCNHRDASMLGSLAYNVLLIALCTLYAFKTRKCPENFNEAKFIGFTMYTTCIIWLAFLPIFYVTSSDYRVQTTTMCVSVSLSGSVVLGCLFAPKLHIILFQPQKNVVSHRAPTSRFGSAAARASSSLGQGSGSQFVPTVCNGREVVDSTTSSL
For data set [3], the target named is T2, Cysteinyl leukotriene receptor 1 (Homo sapiens, UniProt Q9Y271).
T2 sequence (Q9Y271 whole entry): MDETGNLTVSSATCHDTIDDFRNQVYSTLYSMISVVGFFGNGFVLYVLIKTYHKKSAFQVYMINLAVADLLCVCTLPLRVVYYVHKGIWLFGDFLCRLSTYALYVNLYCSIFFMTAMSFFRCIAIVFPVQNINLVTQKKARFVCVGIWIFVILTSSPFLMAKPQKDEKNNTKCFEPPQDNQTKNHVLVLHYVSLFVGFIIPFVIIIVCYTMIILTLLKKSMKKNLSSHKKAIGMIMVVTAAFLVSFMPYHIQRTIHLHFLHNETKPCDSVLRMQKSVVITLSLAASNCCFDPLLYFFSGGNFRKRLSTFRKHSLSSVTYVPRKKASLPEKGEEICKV
Put plainly: Antagonist activity at human CysLT1 receptor expressed in Syrian hamster AV12-664 cells assessed as decrease in LTD4-induced intracellular calcium level pretreated followed by LTD4 addition by fluo-3 dye based FLIPR assay. In kind it is functional, cell-based.

In another data set the test system is Rattus norvegicus. The experiment in a line: Decrease in plasma protein extravasation in fasted Harlan Sprague-Dawley rat model of migraine compound administered via oral gavage 1 hr prior to electrical stimulation of trigeminal ganglion measured after 15 mins by FITC-BSA based fluorescence assay. In kind it is functional.
A short description of data set [4]: Cmax in rat at 1 mg/kg, po. In kind it is ADME, organism-based. Particulars: in vivo. Also on record: dose 1 mg/kg, route oral.
Data set [5] is described as follows: Tmax in rat at 1 mg/kg, po. In kind it is ADME, organism-based. The conditions noted are these: in vivo.
The nature of data set [6]: Oral bioavailability in rat at 1 mg/kg. The format is ADME, organism-based. Particulars: in vivo.
The nature of data set [7]: Ratio of Cmax in rat to EC50 for human mGlu2 receptor expressed in hamster AV12 cells expressing EAAT1.
A short description of data set [8]: Ratio of Cmax in rat to EC50 for human CysLT1 expressed in Syrian hamster AV12-664 cells.

As for `CC(=O)c1ccc(OCc2cccc(Oc3ccc(-c4nn[nH]n4)cn3)c2)c(C(F)(F)F)c1O`, the EC50 in [1] was 0.0179 µM. For the same compound, the Emax in data set [2] stood at 85%. The IC50 in data set [3] is 0.144 µM.
For `CC(=O)c1ccc(OCc2cccc(Oc3cc(-c4nn[nH]n4)ccn3)c2)c(Cl)c1O` the same measures were 0.0874 µM, 101% and 0.342 µM.
In the same order, the values of `CCCc1c(OCc2ccc(Oc3cc(-c4nn[nH]n4)ccn3)cc2)ccc(C(C)=O)c1O` are 0.47 µM, 88 to 89% and 0.2 µM.
In the case of `CCCc1c(OCc2ccc(Oc3ccc(C(=O)O)cn3)cc2)ccc(C(C)=O)c1O`, the EC50 in data set [1] was determined as 1.43 µM. Also, the Emax in [2] was 96%. The IC50 in data set [3] turned out to be 0.132 µM.
In the same order, the values of `CCCc1c(OCc2cccc(Oc3cc(-c4nn[nH]n4)ccn3)c2)ccc(C(C)=O)c1O` are 0.11 µM, 90 to 96% and 0.0624 µM.
Turning to `CCCc1c(OCc2ccc(Oc3cccc(-c4nn[nH]n4)c3)nc2)ccc(C(C)=O)c1O`, in data set [1], the EC50 is 0.561 µM. In data set [2], the maximal response (Emax) turned out to be 74%. Further, in [3], the IC50 was 0.484 µM.
Take `CNS(=O)(=O)Cc1ccc2[nH]cc(CCN(C)C)c2c1` [SUMATRIPTAN]: the ID100 in the data set with Rattus norvegicus was found to be 1 mg/kg.
In the case of `CC(=O)c1ccc(OCc2cccc(Oc3cc(-c4nn[nH]n4)ccn3)c2)c(C(F)(F)F)c1O`, in data set [1], the EC50 lay in the range of 0.006 to 0.0064 µM. In addition, the Emax in data set [2] stood at 81%. Besides, in data set [3], the IC50 was found to be 0.112 µM. In data set [4], this compound yielded a Cmax of 0.0241 µg/mL. Also, the Tmax in data set [5] is 24 min. For the same compound, the bioavailability in data set [6] turned out to be 38%. Besides, in the data set on Rattus norvegicus, the Activity entry was “Dose-dependent effect” and the ID100 came to 0.01 mg/kg. In addition, the Ratio in [7] came to 8.52. Further, the Ratio in data set [8] is recorded as 0.46.
As for `CC(=O)c1ccc(OCc2cccc(Oc3ccc(-c4nn[nH]n4)cn3)c2)c(F)c1O`, the EC50 in data set [1] is 1.08 µM. In addition, in data set [2], the Emax stood at 91%. In [3], the IC50 is 1.5 µM.
For the compound `CC(=O)c1ccc(OCc2ccc(Oc3cccc(-c4nn[nH]n4)c3)cc2)c(C)c1O`, in data set [1], the EC50 was 0.293 to 0.336 µM. In addition, the Emax in data set [2] is 85%. Moreover, the IC50 in [3] stood at 1.43 µM. The Cmax in [4] is 0.43 µg/mL. The Tmax in data set [5] was 42 min. Also, the bioavailability in [6] came out at 88%. The Activity result in the data set on Rattus norvegicus is “Dose-dependent effect”. The same compound showed an ID100 with Rattus norvegicus of 0.1 mg/kg. Besides, the results for the Ratio in [7] and in data set [8] were 3.08 and 0.73, respectively.
Turning to `CCCc1c(OCc2cccc(Oc3ncccc3-c3nn[nH]n3)c2)ccc(C(C)=O)c1O`, in data set [1], the EC50 came out at 0.227 µM. Moreover, the Emax in data set [2] amounted to 85%. In addition, in [3], the IC50 is 0.39 µM.
For `CCCc1c(OCc2cccc(Oc3cc(C(=O)O)ccn3)c2)ccc(C(C)=O)c1O` the same measures were 0.404 µM, 91% and 0.0736 µM.
With `CCCc1c(OCc2ccc(Oc3ncccc3-c3nn[nH]n3)cc2)ccc(C(C)=O)c1O`, the EC50 in data set [1] turned out to be 0.31 µM. For the same compound, the Emax in [2] was found to be 87%. The IC50 in data set [3] is 0.33 µM.
In the same order, the values of `CC(=O)c1ccc(OCc2cccc(Oc3ccc(-c4nn[nH]n4)cn3)c2)c(Cl)c1O` are 0.0393 µM, 90% and 0.475 µM.
As for `CCCc1c(OCc2cccc(Oc3ccc(-c4nn[nH]n4)cn3)c2)ccc(C(C)=O)c1O`, the EC50 in data set [1] was 0.319 µM. The Emax in [2] was determined as 80%. The IC50 in [3] was determined as 0.203 µM.
In the same order, the values of `CCCc1c(OCc2ccc(Oc3ccc(-c4nn[nH]n4)cn3)cc2)ccc(C(C)=O)c1O` are 0.682 µM, 94% and 0.346 µM.
